Data published in PMC1890308, “Anti-calmodulins and Tricyclic Adjuvants in Pain Therapy Block the TRPV1 Channel” (PLoS ONE, 2007).
Values joined by “and” are separate entries in the source; they are usually repeats but may differ in a detail not shown here. Identical values can stand only once. “Also recorded” adds a separate entry of the source. Like-named read-outs stand apart in the source and are kept apart here. Ends that are not written are not given here.

Assays:
rat TRPV1 = target: T1, rat TRPV1 (Rattus norvegicus, UniProt O35433); assay: capsaicin-induced 45Ca2+-uptake in TRPV1-NIH3T3 cells; type: cell-based; details: for IC50 / antagonist activity on capsaicin-induced Ca2+-uptake (in words): 2 µM capsaicin; for IC50: 10 min, 2×10^−5 M extracellular Ca2+, room temperature; for kinetics of Ca2+-transport inhibition: increasing concentrations of capsaicin; for effect on Ca2+-uptake at low concentrations in the presence of capsaicin: 2 mM capsaicin (so in the source)
T1 construct: expressed in transfected cells
Procedure: Assays were carried out in 2×10^−5 M extracellular Ca^2+ in 96 well plate formats at room temperature (22°C) for 10 min with robotic liquid handling. […] We hypothesized that calmodulin antagonists and some registered drugs may exert their blocking effect with another mechanisms on TRPV1 and not necessarily on their conventional target.
TRPV1-NIH3T3 mouse fibroblast line, ectopically expressing the rat TRPV1 was established previously.
(§1) Vanilloid agonist inducible calcium transport was assayed in adherent cell lines ectopically expressing the C-terminally ε-tagged rat TRPV1 (3×10^4 cells/well) and primary cultures prepared from embryonic DRG, seeded in poly-D lysine/collagen coated 96 well plates. […] The previously established cell lines and standardized DRG cultures were extensively characterized for functional cell-based TRPV1 studies [1]–[4]. Immediately before the transport assay, cells were adapted to room temperature (20°C) for 5 min in HCM. ^45Ca^2+-uptake was performed for 10 min at 20°C in HCM using 0.1 µCi ^45Ca^2+ as radioactive tracer in a 100 µl final volume. To stop ^45Ca^2+-uptake, cells were rapidly changed back into 0.2 ml HCM, washed 4 additional times with 0.2 ml HCM, and then lysed in 80 µl/well RIPA buffer (50 mM Tris-HCl, pH 7.5, 150 mM NaCl, 1% Triton X-100, 0.5% deoxycholate, 0.1% SDS, 5 mM EDTA) for 30 min [1]–[4]. Aliquots of the solubilized cell extracts were mixed with 120 µl Microscint-40 and counted in a 96 well plate liquid scintillation counter (TopCount-NXT, Packard).

[1] = test system: intermediate Ca2+-activated K+ channels (IKCa); details: human erythrocytes; cited from earlier work
TRPV1 = TRPV1 (Rattus norvegicus, UniProt O35433); assay: capsaicin-induced 45Ca2+-uptake in primary rat embryonic DRG cultures; type: cell-based; set-up: sensory neurons, expressing TRPV1 endogenously; endogenous in cells; host or cells: primary cultures of embryonic rat dorsal root ganglia (E14, E16); details: rat embryonic DRG cultures
Procedure: Primary cultures were prepared from embryonic (E14) rat DRGs. Along with calmidazolium other polycyclic compounds were included in the vanilloid-induced ^45Ca^2+-transport assays.
Primary DRG cultures were prepared from E16 embryonic rats as described previously then plated in 15 cm Petri dishes for 4 h to remove the most adherent fibroblasts. For Ca^2+-uptake studies primary afferents neurons cultured in 96 well plates (3×10^3 cells/well), coated with poly-D lysine/collagen, which yielded both axons and dendrites bearing neurons due to neuronal growth factor supplementation in the culture medium [1]–[4]. The dendrites are large processes branching from the cell body that taper in diameter further from the cell body. The axons are a constant diameter and project over long distances from the cell body. Before the ion transport experiment, culture medium was removed and cells were washed three times. ^45Ca-uptake assays were carried out in “nominally zero Ca^2+” (i.e. 2×10^−5 M extracellular Ca^2+ ([Ca^2+]o) in 25 mM Tris-HCl buffered Hanks' balanced salt solution (pH 7.5), supplemented with 10 µM CaCl2 and 0.8 mM MgCl2medium (HCM) [1]–[4].
as §1

[2] = target: rat TRPV1 (vanilloid inducible Ca2+-channel/inflammatory pain receptor 1), C-terminally ε-tagged, in TRPV1-NIH3T3 cells (rat) (UniProt O35433)
[3] = target: rat TRPV1 (vanilloid inducible Ca2+-channel/inflammatory pain receptor 1), C-terminally ε-tagged, in TRPV1-NIH3T3 cells (rat) (UniProt O35433); remark: listed apart in the source
formalin-induced pain = test system: formalin-induced pain; set-up: method as in PMID 8883861; details: rat, intrathecal; cited from earlier work
heat-induced tail-flick = test system: heat-induced tail-flick; set-up: method as in PMID 8883861; details: cited from earlier work
[4] = read-out: IC50, inhibition of capsaicin-induced 45Ca2+-uptake

T1 sequence (O35433 whole entry): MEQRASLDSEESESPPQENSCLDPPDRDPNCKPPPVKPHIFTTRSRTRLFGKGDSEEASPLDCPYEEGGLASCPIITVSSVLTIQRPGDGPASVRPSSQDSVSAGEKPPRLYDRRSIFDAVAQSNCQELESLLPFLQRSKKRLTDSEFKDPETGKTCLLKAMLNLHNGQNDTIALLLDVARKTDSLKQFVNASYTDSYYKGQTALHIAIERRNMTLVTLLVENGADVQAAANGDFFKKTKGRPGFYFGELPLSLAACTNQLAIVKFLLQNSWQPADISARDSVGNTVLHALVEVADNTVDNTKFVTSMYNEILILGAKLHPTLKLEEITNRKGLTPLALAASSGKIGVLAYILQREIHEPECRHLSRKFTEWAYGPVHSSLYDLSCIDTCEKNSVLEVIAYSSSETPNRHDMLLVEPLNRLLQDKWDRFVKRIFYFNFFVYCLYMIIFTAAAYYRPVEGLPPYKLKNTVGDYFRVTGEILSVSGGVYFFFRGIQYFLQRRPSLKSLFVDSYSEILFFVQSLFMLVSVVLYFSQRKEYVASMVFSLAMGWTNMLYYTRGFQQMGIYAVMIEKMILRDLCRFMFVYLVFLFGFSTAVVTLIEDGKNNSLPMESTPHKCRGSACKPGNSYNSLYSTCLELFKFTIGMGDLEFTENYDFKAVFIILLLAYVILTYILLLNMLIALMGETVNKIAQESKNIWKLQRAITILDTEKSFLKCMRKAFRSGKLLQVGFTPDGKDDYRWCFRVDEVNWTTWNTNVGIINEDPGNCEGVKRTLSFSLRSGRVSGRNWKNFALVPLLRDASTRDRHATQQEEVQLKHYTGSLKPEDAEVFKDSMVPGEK
TRPV1, sequence (O35433 whole entry): as above
rat TRPV1 (vanilloid inducible Ca2+-channel/inflammatory pain receptor 1), C-terminally ε-tagged, in TRPV1-NIH3T3 cells (rat), sequence (O35433 whole entry): as above

Molecule: CN(C)CCC=C1c2ccccc2CCc2ccccc21 [amitriptyline]
- IC50 (rat TRPV1; [4]): ~60 µM and 60 µM

Molecule: CN(C)CCCN1c2ccccc2Sc2ccc(Cl)cc21 [chlorpromazine]
- antagonist activity on capsaicin-induced Ca2+-uptake (in words) (rat TRPV1): full antagonists
- IC50 (rat TRPV1; [4]): 70 µM
- kinetics of Ca2+-transport inhibition (rat TRPV1): non-competitive inhibition kinetics

Molecule: CN1CCN(CCCN2c3ccccc3Sc3ccc(C(F)(F)F)cc32)CC1 [trifluoperazine]
- antagonist activity on capsaicin-induced Ca2+-uptake (in words) (rat TRPV1): full antagonists
- IC50 (rat TRPV1; [4]): 9 µM and < 10 µM
- activity on IKCa channels (in words) [1]: inactive

Molecule: N=C(N)NCCC[C@H](NC(=O)COCC(c1ccccc1)c1ccccc1)C(=O)O [SB 290157, N2-[(2,2-Diphenylethoxy)acetyl]-L-arginine]
- blocking activity on capsaicin-induced Ca2+-uptake (in words) (TRPV1): partial blocking activity

Molecule: COc1cc(CNC(=O)CCCC/C=C/C(C)C)ccc1O [capsaicin]
- ED100 for capsaicin-induction (rat TRPV1; pH 7.5): ~1 µM

Molecule: NCC1(CC(=O)O)CCCCC1 [gabapentine]
- antagonist activity on capsaicin-induced Ca2+-uptake (in words) (rat TRPV1): partial inhibition

Molecule: Fc1ccc(C(c2ccc(F)cc2)N2CCN(C/C=C/c3ccccc3)CC2)cc1 [flunarizine]
- blocking activity on capsaicin-induced Ca2+-uptake (in words) (TRPV1): partially active; also recorded: partial blocking activity

Molecule: Clc1ccc(COC(Cn2cc[n+](CC3CCCCC3)c2)c2ccc(Cl)cc2Cl)c(Cl)c1 (stereo not drawn) [M2, Miconazole 2]
- IC50 (rat TRPV1; [4]): 8 µM

Molecule: Oc1cc2c(cc1O)CN(C(=S)NCCc1ccc(Cl)cc1)CCC2 [capsazepine]
- kinetics of Ca2+-transport inhibition (rat TRPV1): shifted the capsaicin dose-response curves right

Molecule: Camstatin (peptide)
- inhibition of capsaicin (2 µM)-induced 45Ca2+-uptake in intact TRPV1-NIH3T3 cells, 10 min, camstatin co-incubated in the uptake medium [2]: 11 µM
- inhibition of capsaicin-induced Ca2+-uptake in TRPV1-NIH3T3 cells [3]: 20 µM

Molecule: NC(=O)N1c2ccccc2C=Cc2ccccc21 [carbamazepine]
- antagonist activity on capsaicin-induced Ca2+-uptake (in words) (rat TRPV1): inactive
- antagonist activity on capsaicin-induced Ca2+-uptake (in words) (rat TRPV1; listed as Carbamazepine): completely inactive

Molecule: APETERAAVAIQAQFRKFQKKKAGS [camstatin]
- IC50 (rat TRPV1; IC50, inhibition of capsaicin-induced 45Ca2+-uptake): 11 µM and 20 µM

Molecule: Fc1cc(F)cc(C[n+]2ccn(CC(OCc3ccc(Cl)cc3Cl)c3ccc(Cl)cc3Cl)c2)c1 (stereo not drawn) [M1, Miconazole 1]
- IC50 (rat TRPV1; [4]): 8 µM

Molecule: OCCN1CCN(CCCN2c3ccccc3Sc3ccc(C(F)(F)F)cc32)CC1 [fluphenazine]
- antagonist activity on capsaicin-induced Ca2+-uptake (in words) (rat TRPV1): partial or weak inhibitors
- IC50 (rat TRPV1; [4]): ~250 µM
- effect on Ca2+-uptake at low concentrations in the presence of capsaicin (rat TRPV1): increased Ca^2+-uptake

Molecule: NCCCCNS(=O)(=O)c1ccc2c(Cl)cccc2c1 [W-13, N - (4 - Aminobutyl) – 5 - chloro-2-naphthalenesulfonamide]
- antagonist activity on capsaicin-induced Ca2+-uptake (in words) (rat TRPV1): partial or weak inhibitors
- IC50 (rat TRPV1; [4]): > 300 µM
- effect on Ca2+-uptake at low concentrations in the presence of capsaicin (rat TRPV1): increased Ca^2+-uptake

Molecule: NCCCCCCNS(=O)(=O)c1cccc2c(Cl)cccc12 [W-7, N- 6 – aminohexyl – 5 – chloro - 1 naphtalenesulfonamide]
- antagonist activity on capsaicin-induced Ca2+-uptake (in words) (rat TRPV1): partial or weak inhibitors
- IC50 (rat TRPV1; [4]): ~200 µM
- effect on Ca2+-uptake at low concentrations in the presence of capsaicin (rat TRPV1): increased Ca^2+-uptake
- analgesia in both phases of formalin tests (formalin-induced pain): analgesic
- effect on heat-induced tail-flick latency (heat-induced tail-flick): inhibit
- activity on IKCa channels (in words) [1]: inactive

Molecule: O=C1CSC(c2ccccc2Cl)c2cc(Cl)ccc2N1 (stereo not drawn) [CGP-37157, 7-Chloro - 5 - (2 - chlorophenyl) - 1,5 - dihydro - 4,1 – benzothiazepin - 2(3H) - one]
- blocking activity on capsaicin-induced Ca2+-uptake (in words) (TRPV1): partially active
- blocking activity on capsaicin-induced Ca2+-uptake (in words) (TRPV1; listed as CGP 37157): partial blocking activity
